Laboratory results reported in publication PMC3218208 (Nature chemical biology, 2011).

Target: Enzyme I (EI, PtsI) (Escherichia coli, UniProt P08839)
Test: […] pyruvate/PEP isotope exchange assay with LC-MS/MS on purified enzyme
Type: biochemical

O=C(O)CCC(=O)C(=O)O [αKG, α-ketoglutarate]
Ki: 1300 ± 100 µM
